For experiment [1], the system named is Rhopalosiphum padi. As to the kind of experiment: Insecticidal activity against adult Rhopalosiphum padi infested wheat plant assessed as reduction in xylem ingestion at 0.4 mg/l applied to the roots for 6 hr by electrical penetration graphical analysis relative to control. Type of experiment: functional, organism-based.
In experiment [2] the test system is Rhopalosiphum padi. Briefly: Insecticidal activity against adult Rhopalosiphum padi infested wheat plant assessed as reduction in occurrences of phloem ingestion at 0.4 mg/l applied to the roots for 6 hr by electrical penetration graphical analysis relative to control. The class given is functional, organism-based.
Experiment [3] has as its system Rhopalosiphum padi. As to the kind of experiment: Insecticidal activity against adult Rhopalosiphum padi infested wheat plant assessed as reduction in occurrences of salivation into sieve elements at 0.4 mg/l applied to the roots for 6 hr by electrical penetration graphical analysis relative to control. The class given is functional, organism-based.
Experiment [4] concerns Rhopalosiphum padi. As to the kind of experiment: Insecticidal activity against adult Rhopalosiphum padi infested wheat plant assessed as total time of xylem ingestion at 0.4 mg/l applied to the roots for 6 hr by electrical penetration graphical analysis (reference value: 23.1 +/- 4.5 min). The class given is functional.
Experiment [5] relates to Rhopalosiphum padi. As to the kind of experiment: Insecticidal activity against adult Rhopalosiphum padi infested wheat plant assessed as total time of phloem ingestion at 0.4 mg/l applied to the roots for 6 hr by electrical penetration graphical analysis (reference value: 296.4 +/- 39.3 min). Type of experiment: functional.
Experiment [6] deals with Rhopalosiphum padi. Briefly: Insecticidal activity against adult Rhopalosiphum padi infested wheat plant assessed as total time of salivation into sieve elements at 0.4 mg/l applied to the roots for 6 hr by electrical penetration graphical analysis (reference value: 35.4 +/- 6.8 secs). The class given is functional.
Experiment [7] deals with Rhopalosiphum padi. Briefly: Insecticidal activity against adult Rhopalosiphum padi infested wheat plant assessed as time taken for first xylem ingestion occurrence at 0.4 mg/l applied to the roots for 6 hr by electrical penetration graphical analysis (reference value: 145.5 +/- 27.1 min). Type of experiment: functional.
Experiment [8] deals with Rhopalosiphum padi. Briefly: Insecticidal activity against adult Rhopalosiphum padi infested wheat plant assessed as time taken for first phloem activity occurrence at 0.4 mg/l applied to the roots for 6 hr by electrical penetration graphical analysis (reference value: 141.9 +/- 18.1 min). The class given is functional.
Experiment [9] concerns Rhopalosiphum padi. Briefly: Toxicity against Rhopalosiphum padi infested wheat plant assessed as mortality at 1000 mg/l applied to upper plant for 1 min followed by basipetal transportation for 48 hr measured 48 hr after removal of upper plant parts relative to control. Type of experiment: functional.
The test system of experiment [10] is Rhopalosiphum padi. Briefly: Toxicity against Rhopalosiphum padi infested wheat plant assessed as mortality at 1000 mg/l applied to upper plant for 1 min followed by basipetal transportation for 48 hr measured 24 hr after removal of upper plant parts relative to control. The class given is functional.
Experiment [11] concerns Rhopalosiphum padi. Briefly: Toxicity against first-instar nymph of Rhopalosiphum padi assessed as reduction in reproductive rate at 0.4 mg/l applied to roots measured after 16 days relative to control. Type of experiment: functional, organism-based.
The subject of experiment [12] is Rhopalosiphum padi. As to the kind of experiment: Toxicity against first-instar nymph of Rhopalosiphum padi assessed as time until reproductive maturity at 0.4 mg/l applied to roots (reference value: 6.6 +/- 0.52 days). Type of experiment: functional.
Experiment [13] concerns Rhopalosiphum padi. As to the kind of experiment: Toxicity against first-instar nymph of Rhopalosiphum padi assessed as reduction in weight at 0.4 mg/l applied to roots measured after 7 days relative to control. The class given is functional, organism-based.
Experiment [14] has as its system Rhopalosiphum padi. Briefly: Insecticidal activity against adult Rhopalosiphum padi infested wheat plant assessed as bout duration of xylem ingestion at 2 mg/l applied to the roots for 6 hr by electrical penetration graphical analysis (reference value: 20.4 +/- 4.5 min). Type of experiment: functional.
The test system of experiment [15] is Rhopalosiphum padi. As to the kind of experiment: Insecticidal activity against adult Rhopalosiphum padi infested wheat plant assessed as bout duration of phloem ingestion at 2 mg/l applied to the roots for 6 hr by electrical penetration graphical analysis (reference value: 277.2 +/- 30.8 min). Type of experiment: functional.
Experiment [16] concerns Rhopalosiphum padi. Briefly: Insecticidal activity against adult Rhopalosiphum padi infested wheat plant assessed as bout duration of salivation into sieve elements at 2 mg/l applied to the roots for 6 hr by electrical penetration graphical analysis (reference value: 32.4 +/- 3 secs). The class given is functional.
Experiment [17] deals with Rhopalosiphum padi. Briefly: Insecticidal activity against adult Rhopalosiphum padi infested wheat plant assessed as reduction in xylem ingestion at 2 mg/l applied to the roots for 6 hr by electrical penetration graphical analysis relative to control. The class given is functional, organism-based.
Experiment [18] concerns Rhopalosiphum padi. Briefly: Insecticidal activity against adult Rhopalosiphum padi infested wheat plant assessed as reduction in occurrences of phloem ingestion at 2 mg/l applied to the roots for 6 hr by electrical penetration graphical analysis relative to control. Type of experiment: functional, organism-based.
Experiment [19] concerns Rhopalosiphum padi. Briefly: Insecticidal activity against adult Rhopalosiphum padi infested wheat plant assessed as reduction in occurrences of salivation into sieve elements at 2 mg/l applied to the roots for 6 hr by electrical penetration graphical analysis relative to control. The class given is functional, organism-based.
Experiment [20] has as its system Rhopalosiphum padi. Briefly: Insecticidal activity against adult Rhopalosiphum padi infested wheat plant assessed as total time of xylem ingestion at 2 mg/l applied to the roots for 6 hr by electrical penetration graphical analysis (reference value: 23.1 +/- 4.5 min). The class given is functional.
The test system of experiment [21] is Rhopalosiphum padi. As to the kind of experiment: Insecticidal activity against adult Rhopalosiphum padi infested wheat plant assessed as total time of phloem ingestion at 2 mg/l applied to the roots for 6 hr by electrical penetration graphical analysis (reference value: 296.4 +/- 39.3 min). The class given is functional.
Experiment [22] has as its system Rhopalosiphum padi. Briefly: Insecticidal activity against adult Rhopalosiphum padi infested wheat plant assessed as total time of salivation into sieve elements at 2 mg/l applied to the roots for 6 hr by electrical penetration graphical analysis (reference value: 35.4 +/- 6.8 secs). Type of experiment: functional.
Experiment [23] relates to Rhopalosiphum padi. Briefly: Insecticidal activity against adult Rhopalosiphum padi infested wheat plant assessed as frequency of phloem ingestion at 0.4 mg/l applied to the roots for 6 hr by electrical penetration graphical analysis (reference value: 2.85 +/- 0.18 Hz). The class given is functional.
In experiment [24] the test system is Rhopalosiphum padi. Briefly: Insecticidal activity against adult Rhopalosiphum padi infested wheat plant assessed as frequency of xylem ingestion at 0.4 mg/l applied to the roots for 6 hr by electrical penetration graphical analysis (reference value: 8.2 +/- 0.3 Hz). Type of experiment: functional.
Experiment [25] relates to Rhopalosiphum padi. As to the kind of experiment: Insecticidal activity against adult Rhopalosiphum padi infested wheat plant assessed as bout duration of xylem ingestion at 0.4 mg/l applied to the roots for 6 hr by electrical penetration graphical analysis (reference value: 20.4 +/- 4.5 min). The class given is functional.
Experiment [26] deals with Rhopalosiphum padi. As to the kind of experiment: Insecticidal activity against adult Rhopalosiphum padi infested wheat plant assessed as bout duration of phloem ingestion at 0.4 mg/l applied to the roots for 6 hr by electrical penetration graphical analysis (reference value: 277.2 +/- 30.8 min). Type of experiment: functional.
For experiment [27], the system named is Rhopalosiphum padi. As to the kind of experiment: Insecticidal activity against adult Rhopalosiphum padi infested wheat plant assessed as bout duration of salivation into sieve elements at 0.4 mg/l applied to the roots for 6 hr by electrical penetration graphical analysis (reference value: 32.4 +/- 3 secs). The class given is functional.
Experiment [28] deals with Rhopalosiphum padi. As to the kind of experiment: Toxicity against Rhopalosiphum padi infested wheat plant assessed as mortality at 1000 mg/l applied to upper plant for 1 min followed by basipetal transportation for 24 hr measured 48 hr after removal of upper plant parts relative to control. Type of experiment: functional.
In experiment [29] the test system is Rhopalosiphum padi. As to the kind of experiment: Toxicity against Rhopalosiphum padi infested wheat plant assessed as mortality at 1000 mg/l applied to upper plant for 1 min followed by basipetal transportation for 24 hr measured 24 hr after removal of upper plant parts relative to control. Type of experiment: functional.
Experiment [30] deals with Rhopalosiphum padi. As to the kind of experiment: Toxicity against Rhopalosiphum padi infested wheat plant applied to the roots measured after 48 hr. Type of experiment: functional.
In experiment [31] the test system is Rhopalosiphum padi. Briefly: Toxicity against Rhopalosiphum padi infested wheat plant applied to the roots measured after 24 hr. The class given is functional.
Experiment [32] has as its system Rhopalosiphum padi. Briefly: Contact toxicity against Rhopalosiphum padi infested wheat plant applied as spray measured after 24 hr. The class given is functional.

The values that follow come from ChEMBL document CHEMBL3046903, “Systemic action of novel neonicotinoid insecticide IPP-10 and its effect on the feeding behaviour of Rhopalosiphum padi on wheat” (2010).

In brackets after ≈: the same amount, converted by molar mass. Activity calls are given as the source filed them. The calls are words filed in the database; no cut-off is given here.

Usually LC50 stands for the concentration that kills 50% of the test population. A high value points to lower toxicity.

Take `CC1CC(O)N2CCN(Cc3ccc(Cl)nc3)C2=C1[N+](=O)[O-]` (centres undefined): the outcome with Rhopalosiphum padi [1], with Rhopalosiphum padi [2] and with Rhopalosiphum padi [3] was inactive. The Time in the experiment on Rhopalosiphum padi [4] worked out at 10.4 min; in the experiment on Rhopalosiphum padi [5], 218.8 min; with Rhopalosiphum padi [6], 64.3 s; in the experiment on Rhopalosiphum padi [7], 141.5 min; in the experiment with Rhopalosiphum padi [8], 139.8 min; in the experiment with Rhopalosiphum padi [12] it was 8.39 days. Moreover, the Time with Rhopalosiphum padi [14] is 0 min; with Rhopalosiphum padi [15], 0 min; in the experiment on Rhopalosiphum padi [16], 0 s; with Rhopalosiphum padi [20] it was 0 min; with Rhopalosiphum padi [21], 0 min; in the experiment on Rhopalosiphum padi [22] it was 0 s. Moreover, the Time with Rhopalosiphum padi [25] came out at 9.7 min; in the experiment with Rhopalosiphum padi [26], 206.8 min; in the experiment with Rhopalosiphum padi [27], 59.5 s. The Activity in the experiment with Rhopalosiphum padi [9] is reported as 59.9%; with Rhopalosiphum padi [10], 18.4%; in the experiment with Rhopalosiphum padi [23] it was 1.96 Hz; in the experiment on Rhopalosiphum padi [24], 7.03 Hz; in the experiment on Rhopalosiphum padi [28], 33.2%; with Rhopalosiphum padi [29] it was 14.3%. Also, the outcome in the experiment with Rhopalosiphum padi [11], with Rhopalosiphum padi [13], in the experiment on Rhopalosiphum padi [17], in the experiment with Rhopalosiphum padi [18] and in the experiment with Rhopalosiphum padi [19] was Active. Further, the LC15 stood at 0.09 µg/mL (≈ 0.277 µM) with Rhopalosiphum padi [30] and 0.4 µg/mL (≈ 1.23 µM) in the experiment with Rhopalosiphum padi [31]. Moreover, the LC50 is 2.4 µg/mL (≈ 7.39 µM) in the experiment on Rhopalosiphum padi [30] (Rhopalosiphum padi, 48 h); 23.4 µg/mL (≈ 72.1 µM) in the experiment with Rhopalosiphum padi [31] (Rhopalosiphum padi, 24 h); 2.45 µg/mL (≈ 7.54 µM) with Rhopalosiphum padi [32].
On to `O=[N+]([O-])/N=C1\NCCN1Cc1ccc(Cl)nc1` [IMIDACLOPRID], for which the Activity in the experiment on Rhopalosiphum padi [9] was found to be 7.1%; in the experiment on Rhopalosiphum padi [10], 3.5%; in the experiment with Rhopalosiphum padi [28], 6.7%; in the experiment with Rhopalosiphum padi [29] it was 3.1%. The compound further registered an LC50 with Rhopalosiphum padi [32] of 0.9 µg/mL (≈ 3.52 µM).
